“Also recorded” adds a separate entry of the source.
Key:
HIV-1 lentiviral vector = HIV-1 lentiviral vector screening assay; format: cell-based; details: HeLa cells, compared with no drug
Protocol: For the vector assay HeLa cells can be utilized and the experiment can be performed in a suitable plate, such as a 24 well plate. […] A negative control, e.g., AZT, and a positive control as vector only and blank as un-infected are appropriately selected. Again, the concentration of DMSO was limited to 0.1%. Hela cells (˜3.2-10^5 cells/ml) were infected with HIV-1 lentiviral vector in the presence of the compounds to be tested and controls. After the first 24 hours of incubation at 37° C. (5% CO2), cells are replaced with fresh media containing test compounds and incubated for an additional 24 hrs. Cells are fixed with 4% paraformaldehyde in PBS and mounted in DAPI on glass slides for visualization and quantification. Images, of at least 2 fields per glass disk are obtained, such as images taken with an Olympus 1X51 fluorescence microscope equipped with a camera. EGFP fluorescence spanning an average area of 12*10^5 square pixels is quantified using Image J software, from which IC50 values can bee extrapolated using graph pad PRISM software.
For the vector assay HeLa cells were utilized and the HIV-1 lentiviral vector screening was performed in a 24 well plate. […] Cells were fixed with 4% paraformaldehyde in PBS and mounted in DAPI on glass slides for visualization and quantification. […]

HeLa cells = details: lentiviral vector screening, at high concentrations
Protocol: For the vector assay HeLa cells were utilized and the HIV-1 lentiviral vector screening was performed in a 24 well plate. […] As the negative control AZT was used, a positive control as vector only and blank as un-infected were additionally used. Again the concentration of DMSO was limited to 0.1%. Hela cells (˜3.2*10^5 cells/ml) were infected with HIV-1 lentiviral vector in the presence of the compound(s) tested and controls. After the first 24 hours of incubation at 37° C. (5% CO2), cells were replaced with fresh media containing test compounds and incubated for an additional 24 hrs. Cells were fixed with 4% paraformaldehyde in PBS and mounted in DAPI on glass slides for visualization and quantification. Images, of at least 2 fields per glass disk were taken with an Olympus 1X51 fluorescence microscope equipped with a camera.

[1] = tested on: HIV-1 integrase (C-terminal domain), eGFP-MBP-IN-WT; assay: cellular integrase assay (integrase screening assay, nuclear import inhibition); format: cell-based; details: HEK 293T cells transfected with eGFP-MBP-IN-WT, fluorescence microscopy, FIG. 1
Protocol: In assessing suitability of a compound according to any of the formulas herein, an integrase screening assay can be conducted. In the present case, an exemplary such assay is a cellular integrase assay. A cellular integrase assay can be performed in a 24 well plate. The assay is designed to test compounds in 3-fold serial dilutions (10, 3.3, 1.1 and 0.33 μM) with 0.1% DMSO. Negative and positive control included eGFP-MBP-IN-R262/3/6A, eGFP-MBP-IN-K236/240 and eGFP-MBP-IN-WT respectively supplemented with 0.1% DMSO. Refinement of the assay for optimal results is feasible. For example, refinement herein yields the following protocol. HEK 293T cells (˜0.4*10^5 cells/ml) are seeded and incubated at 37° C. (5% CO2) for ˜3 days on Poly-L-lysine treated glass coverslips until 80-90% confluent (˜3.2*10^5 cells/ml). Next, cells are transfected with 1 μg of eGFP-MBP-INR262/3/6A, eGFP-MBP-IN-K236/240 and eGFP-MBP-IN-WT DNA plasmid simultaneously with test compounds, at varying concentrations mentioned above, using lipofectamine 2000 transfection reagent (μL) at a ratio of 1:2 DNA plasmid to lipofectamine. After 4 hrs of incubation (at 37° C., 5% CO2), the lipofectamine mix is removed and replaced with fresh medium containing serum in the presence of the test compounds. […] Images may be prepared using an Olympus 1X51 fluorescence microscope equipped with a camera by way of example. […]

Cc1ccc(S(=O)(=O)NCCCNS(=O)(=O)c2ccc(C)cc2)cc1 [compound 535, 4-methyl-N-[3-(4-methylbenzenesulfonamido)propyl] benzene sulfonamide]
inhibitory effect on HIV infectivity / HIV-1 replication, dose dependence (HIV-1 lentiviral vector; FIG. 2): exhibited an inhibitory effect in a dose dependent manor | inhibitory effect on HIV infectivity / HIV-1 replication, dose dependence (HIV-1 lentiviral vector; FIG. 2, listed as representative compound): clearly inhibited HIV-1 replication in a dose-dependent manor | cellular toxicity (HeLa cells): without introducing cellular toxicity | inhibition of nuclear import of integrase (nuclear exclusion phenotype) [1]: nuclear exclusion of the fusion protein in majority of cells; also recorded: exhibited inhibition sufficient to prevent nuclear import of integrase; also recorded: clearly demonstrates inhibition of nuclear import of IN | inhibition of nuclear import of integrase (nuclear exclusion phenotype) ([1]; listed as representative compound): displayed inhibition of nuclear import of IN similar to that of the triple mutant chimeric IN

Reference: US10301258B2, “Benzende sulfonamide derivatives as HIV integrase inhibitors” (priority 2014, dated 2019)
